The source of these data is patent US9247747B2, “Fungicidal substituted 1-{2-[2-halo-4-(4-halogen-phenoxy)-phenyl]-2-alkoxy-2-alkynyl/alkenyl-ethyl}-1H-[1,2,4]triazole compounds” (BASF SE, priority 2011, dated 2016).

The structures appear in SMILES notation.

Assay [1] deals with Septoria tritici. The assay can be described thus: M1. Microtest: activity against leaf blotch on wheat caused by Septoria tritici (Septtr), micro titer plate growth. It counts as cell-based. As to conditions: 405 nm, 7 days after inoculation, relative growth vs active compound-free control (100%). How it is done:
Microtest The active compounds were formulated separately as a stock solution having a concentration of 10000 ppm in dimethyl sulfoxide. M1. Activity Against Leaf Blotch on Wheat Caused by Septoria tritici (Septtr) The stock solutions were mixed according to the ratio, pipetted onto a micro titer plate (MTP) and diluted with water to the stated concentrations. A spore suspension of Septoria tritici in an aqueous biomalt or yeast-bactopeptone-glycerine solution was then added. The plates were placed in a water vapor-saturated chamber at a temperature of 18° C. Using an absorption photometer, the MTPs were measured at 405 nm 7 days after the inoculation. The measured parameters were compared to the growth of the active compound-free control variant (100%) and the fungus-free and active compound-free blank value to determine the relative growth in % of the pathogens in the respective active compounds

Assay [2] relates to Septoria tritici. The experiment in a line: G1. Preventative control of leaf blotch on wheat caused by Septoria tritici (Septtr P1), green house. It counts as in vivo. As to conditions: 300 pm active substance, % diseased leaf area, untreated control 90%. How it is done:
The spray solutions were prepared in several steps:
The stock solution were prepared: a mixture of acetone and/or dimethylsulfoxide and the wetting agent/emulsifier Wettol, which is based on ethoxylated alkylphenoles, in a relation (volume) solvent-emulsifier of 99 to 1 was added to 25 mg of the compound to give a total of 5 ml. Water was then added to total volume of 100 ml.
This stock solution was diluted with the described solvent-emulsifier-water mixture to the given concentration.
G1. Preventative Control of Leaf Blotch on Wheat Caused by Septoria tritici (Septtr P1)
Leaves of pot-grown wheat seedling were sprayed to run-off with an aqueous suspension of the active compound or their mixture, prepared as described. The plants were allowed to air-dry. The next day the plants were inoculated with an aqueous spore suspension of Septoria tritici. Then the trial plants were immediately transferred to a humid chamber at 18-22° C. and a relative humidity close to 100%. After 4 days the plants were transferred to a chamber with 18-22° C. and a relative humidity close to 70%. After 4 weeks the extent of fungal attack on the leaves was visually assessed as % diseased leaf area.

For a further assay, the system named is Botritis cinerea. The assay can be described thus: G4. Preventative fungicidal control of Botritis cinerea on leaves of green pepper (Botrci P1), green house. In kind it is in vivo. As to conditions: 300 pm active substance, % diseased leaf area, untreated control 90%. As for the experimental part: 1) Green House The spray solutions were prepared in several steps: The stock solution were prepared: a mixture of acetone and/or dimethylsulfoxide and the wetting agent/emulsifier Wettol, which is based on ethoxylated alkylphenoles, in a relation (volume) solvent-emulsifier of 99 to 1 was added to 25 mg of the compound to give a total of 5 ml. Water was then added to total volume of 100 ml. This stock solution was diluted with the described solvent-emulsifier-water mixture to the given concentration. G4. Preventative fungicidal control of Botritis cinerea on leaves of green pepper (Botrci P1 Young seedlings of green pepper were grown in pots to the 4 to 5 leaf stage. These plants were sprayed to run-off with an aqueous suspension, containing the concentration of active ingredient or their mixture mentioned in the table below. The next day the plants were inoculated with a aqueous biomalt solution containing the spore suspension of Botritis cinerea. Then the plants were immediately transferred to a humid chamber. After 5 days at 22 to 24° C. and a relative humidity close to 100% the extent of fungal attack on the leaves was visually assessed as % diseased leaf area.

`C#CC(Cn1cncn1)(OC)c1ccc(Oc2ccc(Cl)cc2)cc1Cl` (stereo not drawn) [I-1]: the “Growth (%) at 0.002 ppm Septtr” value with Septoria tritici [1] was determined as 14%.
Regarding `C=CCOC(Cn1cncn1)c1ccc(Oc2ccc(Cl)cc2)cc1Cl` (stereo not drawn), the “Disease (%) at 300 pm Septtr P1” value in the assay with Septoria tritici [2] was 30%. The “Disease (%) at 300 pm Botrci P1” value with Botritis cinerea was 30%.
Consider `C=CC(Cn1cncn1)(OC)c1ccc(Oc2ccc(Cl)cc2)cc1Cl` (stereo not drawn) [I-7, 1-[2-[2-chloro-4-(4-chlorophenoxy)phenyl]-2-methoxy-but-3-enyl]-1,2,4-triazole], for which the “Disease (%) at 300 pm Septtr P1” value in the assay with Septoria tritici [2] is listed as 0%.
On to `COC(Cn1cncn1)c1ccc(Oc2ccc(Cl)cc2)cc1Cl` (stereo not drawn), for which the “Disease (%) at 300 pm Septtr P1” value in the assay with Septoria tritici [2] amounted to 40%. Also, in the assay with Septoria tritici [1], the “Growth (%) at 0.002 ppm Septtr” value came out at 72%.
`C=CCOC(C#CC)(Cn1cncn1)c1ccc(Oc2ccc(Cl)cc2)cc1Cl` (stereo not drawn) [I-12]: in the assay with Septoria tritici [2], the “Disease (%) at 300 pm Septtr P1” value is listed as 0%. Besides, the “Disease (%) at 300 pm Botrci P1” value in the assay with Botritis cinerea came to 0%.
Consider `C=CCOC(C=C)(Cn1cncn1)c1ccc(Oc2ccc(Cl)cc2)cc1Cl` (stereo not drawn) [I-8], for which the “Disease (%) at 300 pm Septtr P1” value in the assay with Septoria tritici [2] is 0%.
